How the values were obtained:
Assay in all cases: KINOMEscan competition binding
Settings in all cases: compound 10.0 µM
PTK2 (human) = PTK2 (human) (UniProt Q05397)
MAPK4 (human) = MAPK4 (human) (UniProt P31152)
DAPK1 (human) = DAPK1 (human) (UniProt P53355)
BMPR2 (human) = BMPR2 (human) (UniProt Q13873)
CDKL5 (human) = CDKL5 (human) (UniProt O76039)
CDK4 CCND3 (human) = CDK4 CCND3 (human) (UniProt P11802+P30281)
PRKD2 (human) = PRKD2 (human) (UniProt Q9BZL6)
STK4 (human) = STK4 (human) (UniProt Q13043)
STK4 (human), sequence (Q13043 whole entry, looked up): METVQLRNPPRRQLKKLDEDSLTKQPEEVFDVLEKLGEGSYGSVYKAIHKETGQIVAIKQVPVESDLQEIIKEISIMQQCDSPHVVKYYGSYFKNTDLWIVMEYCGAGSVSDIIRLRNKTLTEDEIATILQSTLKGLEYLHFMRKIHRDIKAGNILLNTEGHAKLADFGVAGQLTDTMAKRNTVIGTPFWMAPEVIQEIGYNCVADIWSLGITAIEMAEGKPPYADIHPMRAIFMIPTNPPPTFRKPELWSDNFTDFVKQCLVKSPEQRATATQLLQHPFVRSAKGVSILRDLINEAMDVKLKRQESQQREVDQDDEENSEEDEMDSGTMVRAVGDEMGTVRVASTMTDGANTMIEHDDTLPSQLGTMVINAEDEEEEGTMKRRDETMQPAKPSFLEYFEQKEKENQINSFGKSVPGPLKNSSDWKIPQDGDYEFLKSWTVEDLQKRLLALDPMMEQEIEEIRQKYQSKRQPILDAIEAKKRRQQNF

MYO3A (human) = MYO3A (human) (UniProt Q8NEV4)
MYLK3 (human) = MYLK3 (human) (UniProt Q32MK0)
DDR2 (human) = DDR2 (human) (UniProt Q16832)
MINK1 (human) = MINK1 (human) (UniProt Q8N4C8)
DYRK2 (human) = DYRK2 (human) (UniProt Q92630)
ULK3 (human) = ULK3 (human) (UniProt Q6PHR2)
AURKC (human) = AURKC (human) (UniProt Q9UQB9)
ANKK1 (human) = ANKK1 (human) (UniProt Q8NFD2)
MAPK3 (human) = MAPK3 (human) (UniProt P27361)
MAPK3 (human), sequence (P27361 whole entry, looked up): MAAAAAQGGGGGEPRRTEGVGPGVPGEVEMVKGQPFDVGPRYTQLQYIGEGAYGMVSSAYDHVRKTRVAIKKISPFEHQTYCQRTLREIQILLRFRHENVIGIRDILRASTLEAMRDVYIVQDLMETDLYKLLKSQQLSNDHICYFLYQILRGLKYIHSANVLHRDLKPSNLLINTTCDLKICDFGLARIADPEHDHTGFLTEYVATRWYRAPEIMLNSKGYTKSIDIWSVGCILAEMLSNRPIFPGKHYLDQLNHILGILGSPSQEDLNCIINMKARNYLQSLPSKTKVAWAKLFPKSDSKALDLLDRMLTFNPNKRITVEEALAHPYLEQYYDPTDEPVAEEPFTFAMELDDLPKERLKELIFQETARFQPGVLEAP

SLK (human) = SLK (human) (UniProt Q9H2G2)
GSK3B (human) = GSK3B (human) (UniProt P49841)
NEK4 (human) = NEK4 (human) (UniProt P51957)
NEK4 (human), sequence (P51957 whole entry, looked up): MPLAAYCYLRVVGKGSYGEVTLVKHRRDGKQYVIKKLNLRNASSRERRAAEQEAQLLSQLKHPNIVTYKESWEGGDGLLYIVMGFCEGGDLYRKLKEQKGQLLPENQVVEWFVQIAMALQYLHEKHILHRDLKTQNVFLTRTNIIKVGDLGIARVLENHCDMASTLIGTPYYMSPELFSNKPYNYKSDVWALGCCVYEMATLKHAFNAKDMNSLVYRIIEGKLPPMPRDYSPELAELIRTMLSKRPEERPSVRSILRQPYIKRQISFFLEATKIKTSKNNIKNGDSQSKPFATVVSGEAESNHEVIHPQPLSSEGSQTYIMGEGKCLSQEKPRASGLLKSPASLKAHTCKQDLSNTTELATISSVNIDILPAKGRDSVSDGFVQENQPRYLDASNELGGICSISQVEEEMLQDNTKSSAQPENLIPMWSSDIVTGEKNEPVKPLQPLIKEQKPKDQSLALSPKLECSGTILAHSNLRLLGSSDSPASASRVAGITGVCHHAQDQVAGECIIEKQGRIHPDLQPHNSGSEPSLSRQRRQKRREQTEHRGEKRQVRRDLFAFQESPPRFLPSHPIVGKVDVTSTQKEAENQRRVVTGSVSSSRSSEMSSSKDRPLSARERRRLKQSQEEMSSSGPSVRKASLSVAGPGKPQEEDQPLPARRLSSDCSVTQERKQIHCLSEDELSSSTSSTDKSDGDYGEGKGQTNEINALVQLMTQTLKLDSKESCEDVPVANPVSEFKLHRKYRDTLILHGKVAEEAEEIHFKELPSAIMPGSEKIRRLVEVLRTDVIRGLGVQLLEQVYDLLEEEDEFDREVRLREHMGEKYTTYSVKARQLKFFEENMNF

SGK110 (human) = SGK110 (human) (UniProt P0C264)
KDR (human) = KDR (human) (UniProt P35968)
KDR (human), sequence (P35968 whole entry, looked up): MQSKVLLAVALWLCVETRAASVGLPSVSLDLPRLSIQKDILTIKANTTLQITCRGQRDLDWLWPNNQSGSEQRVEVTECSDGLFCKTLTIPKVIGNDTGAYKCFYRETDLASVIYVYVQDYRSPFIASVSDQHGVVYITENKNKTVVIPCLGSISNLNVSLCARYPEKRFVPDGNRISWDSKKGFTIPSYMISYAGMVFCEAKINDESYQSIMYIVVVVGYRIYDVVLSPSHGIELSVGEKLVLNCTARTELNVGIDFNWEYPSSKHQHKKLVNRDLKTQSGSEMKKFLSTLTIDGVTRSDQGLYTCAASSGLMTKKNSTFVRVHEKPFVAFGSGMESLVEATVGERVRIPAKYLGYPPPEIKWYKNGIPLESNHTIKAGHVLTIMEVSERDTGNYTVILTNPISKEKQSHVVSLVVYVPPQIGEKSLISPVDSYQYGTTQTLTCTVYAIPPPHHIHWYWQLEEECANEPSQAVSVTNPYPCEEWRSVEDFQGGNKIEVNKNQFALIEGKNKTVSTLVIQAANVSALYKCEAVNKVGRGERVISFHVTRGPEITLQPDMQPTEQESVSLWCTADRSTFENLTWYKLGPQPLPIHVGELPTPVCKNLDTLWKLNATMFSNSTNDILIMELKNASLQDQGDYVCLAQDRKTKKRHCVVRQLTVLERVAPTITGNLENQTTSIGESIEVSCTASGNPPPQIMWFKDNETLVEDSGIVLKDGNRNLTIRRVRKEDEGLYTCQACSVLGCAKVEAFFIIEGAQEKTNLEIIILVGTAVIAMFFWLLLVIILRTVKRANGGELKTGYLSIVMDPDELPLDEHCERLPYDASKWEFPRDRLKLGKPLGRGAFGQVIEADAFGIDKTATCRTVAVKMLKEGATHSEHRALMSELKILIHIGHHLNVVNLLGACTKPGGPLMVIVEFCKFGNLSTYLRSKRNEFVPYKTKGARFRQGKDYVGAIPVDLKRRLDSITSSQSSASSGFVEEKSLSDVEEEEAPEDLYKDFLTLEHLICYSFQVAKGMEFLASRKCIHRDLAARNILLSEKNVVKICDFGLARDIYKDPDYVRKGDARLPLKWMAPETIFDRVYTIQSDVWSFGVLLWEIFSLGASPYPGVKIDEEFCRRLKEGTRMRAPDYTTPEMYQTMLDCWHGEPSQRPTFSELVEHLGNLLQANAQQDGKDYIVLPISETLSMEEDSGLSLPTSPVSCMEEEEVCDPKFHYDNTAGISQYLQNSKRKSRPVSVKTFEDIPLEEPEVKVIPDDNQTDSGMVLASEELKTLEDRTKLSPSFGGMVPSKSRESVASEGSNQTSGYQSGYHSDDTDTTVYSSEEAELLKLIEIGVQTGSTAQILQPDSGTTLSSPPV

EPHA7 (human) = EPHA7 (human) (UniProt Q15375)
CSNK1G1 (human) = CSNK1G1 (human) (UniProt Q9HCP0)
BRSK2 (human) = BRSK2 (human) (UniProt Q8IWQ3)
MAP4K4 (human) = MAP4K4 (human) (UniProt O95819)
MUSK (human) = MUSK (human) (UniProt O15146)
RPS6KA6 KD1 (human) = RPS6KA6 KD1 (human) (UniProt Q9UK32)
RPS6KA6 KD1 (human), sequence (Q9UK32 whole entry, looked up): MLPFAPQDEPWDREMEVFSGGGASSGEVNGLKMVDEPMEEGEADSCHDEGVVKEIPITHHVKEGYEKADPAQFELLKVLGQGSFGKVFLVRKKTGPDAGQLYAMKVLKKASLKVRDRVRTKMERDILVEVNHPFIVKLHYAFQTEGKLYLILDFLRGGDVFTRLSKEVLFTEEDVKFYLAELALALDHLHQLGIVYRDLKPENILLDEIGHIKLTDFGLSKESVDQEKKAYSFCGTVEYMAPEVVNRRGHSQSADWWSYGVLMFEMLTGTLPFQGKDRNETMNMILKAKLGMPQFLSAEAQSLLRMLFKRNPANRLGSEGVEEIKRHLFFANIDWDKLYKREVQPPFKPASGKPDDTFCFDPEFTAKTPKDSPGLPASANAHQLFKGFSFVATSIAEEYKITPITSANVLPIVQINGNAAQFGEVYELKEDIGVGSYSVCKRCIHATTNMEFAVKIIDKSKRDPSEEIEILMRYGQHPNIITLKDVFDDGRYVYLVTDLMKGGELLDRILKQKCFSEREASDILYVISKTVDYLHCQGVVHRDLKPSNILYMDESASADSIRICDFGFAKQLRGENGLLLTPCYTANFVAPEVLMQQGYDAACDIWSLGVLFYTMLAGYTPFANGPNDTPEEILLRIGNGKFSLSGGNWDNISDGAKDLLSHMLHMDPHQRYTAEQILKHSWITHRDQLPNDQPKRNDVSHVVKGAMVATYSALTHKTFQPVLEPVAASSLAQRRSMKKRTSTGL

STK10 (human) = STK10 (human) (UniProt O94804)
MAP3K5 (human) = MAP3K5 (human) (UniProt Q99683)
ULK1 (human) = ULK1 (human) (UniProt O75385)
CSNK2A2 (human) = CSNK2A2 (human) (UniProt P19784)
HUNK (human) = HUNK (human) (UniProt P57058)
STK32A (human) = STK32A (human) (UniProt Q8WU08)
STK38 (human) = STK38 (human) (UniProt Q15208)
EGFR (human) = EGFR (human) (UniProt P00533)
TTK (human) = TTK (human) (UniProt P33981)
TEK (human) = TEK (human) (UniProt Q02763)
HIPK1 (human) = HIPK1 (human) (UniProt Q86Z02)
[1] = target: JAK3 JH1 catalytic (human) (UniProt P52333)

PTK2 (human), sequence (Q05397 whole entry, looked up): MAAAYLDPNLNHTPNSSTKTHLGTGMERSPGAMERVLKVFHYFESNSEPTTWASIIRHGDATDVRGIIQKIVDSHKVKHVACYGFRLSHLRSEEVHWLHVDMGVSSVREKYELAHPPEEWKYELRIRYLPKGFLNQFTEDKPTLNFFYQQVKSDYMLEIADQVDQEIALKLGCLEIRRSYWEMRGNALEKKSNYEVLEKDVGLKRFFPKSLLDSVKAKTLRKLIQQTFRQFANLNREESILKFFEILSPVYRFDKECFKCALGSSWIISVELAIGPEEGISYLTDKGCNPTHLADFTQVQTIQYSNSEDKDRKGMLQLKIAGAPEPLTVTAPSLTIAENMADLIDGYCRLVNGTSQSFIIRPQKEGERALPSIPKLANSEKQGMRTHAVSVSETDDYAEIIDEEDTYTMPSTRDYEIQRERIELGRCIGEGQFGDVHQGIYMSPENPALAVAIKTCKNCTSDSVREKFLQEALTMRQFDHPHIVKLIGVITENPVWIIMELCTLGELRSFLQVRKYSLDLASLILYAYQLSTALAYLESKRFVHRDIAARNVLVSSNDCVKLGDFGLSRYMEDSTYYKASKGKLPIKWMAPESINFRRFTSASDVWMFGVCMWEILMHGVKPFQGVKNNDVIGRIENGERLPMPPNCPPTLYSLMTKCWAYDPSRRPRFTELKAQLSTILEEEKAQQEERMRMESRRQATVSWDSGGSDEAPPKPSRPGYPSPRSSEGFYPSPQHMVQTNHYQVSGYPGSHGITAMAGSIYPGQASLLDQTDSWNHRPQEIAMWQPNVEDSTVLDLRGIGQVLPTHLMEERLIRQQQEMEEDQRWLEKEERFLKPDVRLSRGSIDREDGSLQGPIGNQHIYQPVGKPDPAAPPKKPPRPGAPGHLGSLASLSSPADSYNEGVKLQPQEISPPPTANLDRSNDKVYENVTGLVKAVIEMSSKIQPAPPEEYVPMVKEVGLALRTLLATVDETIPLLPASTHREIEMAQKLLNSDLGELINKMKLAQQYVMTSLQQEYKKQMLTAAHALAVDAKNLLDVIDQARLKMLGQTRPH

## CN(C)C/C=C/C(=O)Nc1ccc(C(=O)Nc2cccc(Nc3nccc(-c4cccnc4)n3)c2)cc1
PTK2 (human)
  kinase still bound, per cent of control: 100%
MAPK4 (human)
  kinase still bound, per cent of control: 19%
DAPK1 (human)
  kinase still bound, per cent of control: 58%
BMPR2 (human)
  kinase still bound, per cent of control: 100%
CDKL5 (human)
  kinase still bound, per cent of control: 60%
CDK4 CCND3 (human)
  kinase still bound, per cent of control: 100%
PRKD2 (human)
  kinase still bound, per cent of control: 100%
STK4 (human)
  kinase still bound, per cent of control: 100%
MYO3A (human)
  kinase still bound, per cent of control: 73%
MYLK3 (human)
  kinase still bound, per cent of control: 87%
DDR2 (human)
  kinase still bound, per cent of control: 64%
MINK1 (human)
  kinase still bound, per cent of control: 50%
DYRK2 (human)
  kinase still bound, per cent of control: 29%
ULK3 (human)
  kinase still bound, per cent of control: 88%
AURKC (human)
  kinase still bound, per cent of control: 5.5%
ANKK1 (human)
  kinase still bound, per cent of control: 8.1%
MAPK3 (human)
  kinase still bound, per cent of control: 100%
SLK (human)
  kinase still bound, per cent of control: 98%
GSK3B (human)
  kinase still bound, per cent of control: 67%
NEK4 (human)
  kinase still bound, per cent of control: 100%
SGK110 (human)
  kinase still bound, per cent of control: 100%
KDR (human)
  kinase still bound, per cent of control: 36%
EPHA7 (human)
  kinase still bound, per cent of control: 100%
CSNK1G1 (human)
  kinase still bound, per cent of control: 0.5%
BRSK2 (human)
  kinase still bound, per cent of control: 88%
MAP4K4 (human)
  kinase still bound, per cent of control: 18%
MUSK (human)
  kinase still bound, per cent of control: 61%
RPS6KA6 KD1 (human)
  kinase still bound, per cent of control: 51%
STK10 (human)
  kinase still bound, per cent of control: 100%
MAP3K5 (human)
  kinase still bound, per cent of control: 100%
ULK1 (human)
  kinase still bound, per cent of control: 97%
CSNK2A2 (human)
  kinase still bound, per cent of control: 5.2%
HUNK (human)
  kinase still bound, per cent of control: 69%
STK32A (human)
  kinase still bound, per cent of control: 95%
STK38 (human)
  kinase still bound, per cent of control: 90%
EGFR (human)
  kinase still bound, per cent of control: 100%
TTK (human)
  kinase still bound, per cent of control: 77%
TEK (human)
  kinase still bound, per cent of control: 94%
HIPK1 (human)
  kinase still bound, per cent of control: 6%
[1]
  kinase still bound, per cent of control: 10%

From the kinase profiling compilation of Christmann-Franck et al. (2016)
